# Calls of active or inactive are those of the source. The rule behind the calls is not given here.
# How the values were obtained:
# [1] = tested on: KYSE-30; assay: Antiproliferative activity against human KYSE-30 cells assessed as inhibition of cell growth measured after 48 hrs by CCK8 method; type: functional, cell-based; conditions: KYSE-30, 48 h
# [2] = tested on: KYSE-30; assay: Antiproliferative activity against human KYSE-30 cells assessed as reduction in cell viability measured after 48 hrs by CCK-8 method; type: functional, cell-based; conditions: dose 10-70 nM
# [3] = tested on: KYSE-30; assay: Antiproliferative activity against human KYSE-30 cells assessed as reduction in cell viability at 70 nM measured after 48 hrs by CCK-8 method relative to control; type: functional
# [4] = tested on: ECa-109 cell line; assay: Inhibition of colony formation in human EC109 cells at 20 to 40 nM incubated for 7 days by crystal violet staining based analysis; type: functional, cell-based; conditions: dose 20-40 nM, time 7.0 day
# [5] = tested on: KYSE-30; assay: Induction of cell cycle arrest in human KYSE-30 cells assessed as accumulation of cells at G2/M phase at 0 to 40 nM measured after 48 hrs by propidium iodide staining based flow cytometry analysis (reference value: 13.87%); type: functional; conditions: dose 0-40 nM
# [6] = tested on: KYSE-30; assay: Induction of cell cycle arrest in human KYSE-30 cells assessed as downregulation of CDK1 level at 40 to 60 nM measured after 48 hrs by Western blot analysis; type: functional, cell-based; conditions: dose 40-60 nM
# [7] = tested on: KYSE-30; assay: Induction of cell cycle arrest in human KYSE-30 cells assessed as effect on cyclin B1 level at 40 to 60 nM measured after 48 hrs by Western blot analysis; type: functional, cell-based; conditions: dose 40-60 nM
# [8] = tested on: KYSE-30; assay: Induction of cell cycle arrest in human KYSE-30 cells assessed as upregulation of histone H3phosphorylation level at 40 to 60 nM measured after 48 hrs by Western blot analysis; type: functional, cell-based; conditions: dose 40-60 nM
# [9] = tested on: ECa-109 cell line; assay: Induction of apoptosis in human EC109 cells assessed as increase in total number of apoptotic cells at 40 nM measured after 48 hrs by annexin V-FITC and PI staining based flow cytometry analysis (reference value: 4.93%); type: functional
# [10] = tested on: KYSE-30; assay: Induction of apoptosis in human KYSE-30 cells assessed as increase in total number of apoptotic cells at 40 nM measured after 48 hrs by annexin V-FITC and PI staining based flow cytometry analysis (reference value: 13.77%); type: functional
# [11] = tested on: KYSE-30; assay: Induction of apoptosis in human KYSE-30 cells measured after 48 hrs by annexin V-FITC and PI staining based flow cytometry analysis; type: functional, cell-based; conditions: dose 20-40 nM
# [12] = tested on: KYSE-30; assay: Induction of apoptosis in human KYSE-30 cells assessed as decrease in pro-caspase 3 level at 40 to 100 nM measured after 48 hrs by Western blot analysis; type: functional, cell-based; conditions: dose 40-100 nM
# [13] = tested on: ECa-109 cell line; assay: Induction of apoptosis in human EC109 cells assessed as increase in caspase 3 activity at 40 to 100 nM measured after 48 hrs by Western blot analysis; type: functional, cell-based; conditions: dose 40-100 nM
# [14] = tested on: Cell membrane; assay: Induction of mitochondrial membrane depolarization in human KYSE-30 cells at 40 to 60 nM incubated for 24 hrs by flow cytometry analysis; type: cell membranes; conditions: dose 40-60 nM
# [15] = tested on: Cell membrane; assay: Induction of mitochondrial membrane depolarization in human EC109 cells at 40 to 60 nM incubated for 24 hrs by flow cytometry analysis; type: cell membranes; conditions: dose 40-60 nM
# [16] = tested on: KYSE-30; assay: Induction of apoptosis in human KYSE-30 cells assessed as effect on bax level at 40 to 60 nM by flow cytometry analysis; type: functional, cell-based; conditions: dose 40-60 nM
# [17] = tested on: KYSE-30; assay: Induction of apoptosis in human KYSE-30 cells assessed as effect on Bcl-xl level at 40 to 60 nM by flow cytometry analysis; type: functional, cell-based; conditions: dose 40-60 nM
# [18] = tested on: KYSE-30; assay: Induction of apoptosis in human KYSE-30 cells assessed as downregulation of Bcl-2 level at 40 to 60 nM by flow cytometry analysis; type: functional, cell-based; conditions: dose 40-60 nM
# [19] = tested on: KYSE-30; assay: Induction of apoptosis in human KYSE-30 cells assessed as increase in Noxa expression level at 40 to 60 nM by flow cytometry analysis; type: functional, cell-based; conditions: dose 40-60 nM
# [20] = tested on: ECa-109; assay: Effect on MST1 level in human EC109 cells at 40 to 60 nM measured after 48 hrs; type: functional, cell-based; conditions: dose 40-60 nM
# [21] = tested on: ECa-109; assay: Effect on MST2 level in human EC109 cells at 40 to 60 nM measured after 48 hrs; type: functional, cell-based; conditions: dose 40-60 nM
# [22] = tested on: ECa-109; assay: Downregulation of YAP level in human EC109 cells at 60 nM incubated for 48 hrs in presence of MG132; type: functional, cell-based
# [23] = tested on: KYSE-30; assay: Induction of apoptosis in human KYSE-30 cells assessed as increase in cleaved PARP level at 40 to 100 nM measured after 48 hrs by Western blot analysis; type: functional, cell-based; conditions: dose 40-100 nM
compound,measurement,setting,value
COc1ccc(CN(C(=O)Cn2cc(CSc3nc4ccccc4s3)nn2)c2cc(OC)c(OC)c(OC)c2)cc1O,IC50,[1],42 nM
same,Activity,[2],Dose-Dependent Effect
same,Activity,[3],>90%
same,inhibition,[4],Active
same,Activity,[5],28.15%
same,Activity,[6],Active
same,Activity,[7],inactive
same,Activity,[8],Active
same,Activity,[9],31.07%
same,Activity,[10],28.56%
same,Activity,[11],Dose-Dependent Effect
same,Activity,[12],Active
same,Activity,[13],Active
same,Activity,[14],Active
same,Activity,[15],Active
same,Activity,[16],inactive
same,Activity,[17],inactive
same,Activity,[18],Active
same,Activity,[19],Active
same,Activity,[20],inactive
same,Activity,[21],inactive
same,Activity,[22],inactive
same,Activity,[23],Active
